Test results as given in US5849753A, “Pyridyl imidazole derivatives and processes for the preparation thereof” (Korea Research Institute of Chemical Technology, priority 1994, dated 1998).

Key:
[1] = system: angiotensin II receptor; assay: Angiotensin II Receptor Binding Assay ([3H] angiotensin II binding inhibition); details: [3H] angiotensin II ligand; 60 minutes, 25° C.; test concentration not given
Outline: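 Rat membranes (SD adrenal cortex or medulla, Wistar liver) in 50 mM Tris pH 7.2, 5 mM MgCl2, 0.25% BSA were incubated with [3H]angiotensin II and test compound at graded concentrations for 60 min at 25 °C. Bound radioactivity was collected by GF/C filtration and scintillation counting, and percent binding inhibition was calculated versus untreated and blank.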

[2] = system: renal hypertensive rat; assay: Blood pressure lowering effect on oral administration to rats at several doses; format: in vivo, male Sprague-Dawley rats
Description: To induce renal hypertension, left renal artery of 4 week-old male Sprague-Dawley rats(from The Korea Research Institute of Chemical Technology) was ligated. The rats were anesthetized with ether and the surgical region on the left abdomen of the rat was shaved, disinfected, and then incised about 1 cm vertically. The renal artery near abdominal aorta was isolated carefully from surrounding tissues and veins, and then ligated completely with a suture(4/0 sterile surgical silk). The muscular strata and skin of the surgical area were sutured with a suture(4/0 sterile surgical silk). The surgical region was disinfected to prevent infection and thereafter, 200 to 250 mg/Kg/day of cephazolin sodium was injected intramuscularly for 2 days. 6 to 8 days after the ligation, rats showing systolic pressure of more than 180 mmHg were selected for renal hypertension test. The blood pressure was determined by a tail-cuff method from the tail under unanesthetized condition(Gerold, M. et al., Arzneimittrel-Forsch, 18, 1285(1968)).
Each of the compounds to be tested was administered intravenously or orally into the renal hypertensive rat. The blood pressure of the rats was determined by direct method(Chiu, A. T. et al., J. Pharmacol. Exp. Ther. 250, 867(1989)) using a catheter. The rats were anesthetized with ketamine hydrochloride(125 mg/kg, i.p.) and a catheter was filled with saline and inserted into a carotid artery and carotid vein. The surgical area was sutured with a metal clip. The rats were relaxed at least 3 hours and the catheter in the carotid artery was adapted to an isotec pressure transducer to determine their blood pressure and heart rate with a physiograph(Linearcorder WR3310). After the blood pressure was stabilized, the test compound was administered intravenously or orally. For intravenous administration, the administered volume and washing volume were 1.0 ml/Kg and 0.2 ml, respectively. The blood pressure and heart rate were measured in regular intervals up to 24 hours after the administration of the test compound and compared with those measured after the administration of the control compound Losartan.
The test compound was dissolved in 0.05N KOH for intravenous administration and suspended in Tween 80 for oral administration.
(iii) Blood pressure lowering effect The present compounds, Losartan(Dup 753) and the Merck compound were administrated orally to rats in 10, 3, 1, 0.3 and 0.1 mg/kg under the same condition as in (ii) and the blood pressure lowering effect was determined.

[3] = Metabolite analysis (enzyme digestion test); format: in vitro ADME, male rats; details: rat liver microsome and NADPH, 1 hour, 37° C.
Description: Enzyme digestion test was executed in order to detect the metabolite of the test compound in vivo.
A liver microsome and NADPH system of male rats were added to each of the present compound(Example 8) and the control compound(Merck), and the mixture was incubated for 1 hour at 37° C. The resultant was extracted with methanol or dichloromethane, and, thereafter, the organic layer was evaporated to obtain a residue. The residue was analyzed using high pressure liquid chromatography.

CCCCc1nc2cc(-c3ccccn3)c(C(OC)OC)nc2n1Cc1ccc(-c2ccccc2-c2nnn[nH]2)cc1 [Example 8, 2-butyl-5-dimethoxymethyl-6-(pyridin-2-yl)-3-[2'-(1H-tetrazol-5-yl)-biphenyl-4-ylmethyl]-3H-imidazo[4,5-b]pyridine]
Binding Inhibition(%) [1]: 93.4% | blood pressure lowering effect ([2]; 1 mg/kg): 32% | blood pressure lowering effect ([2]; 3 mg/kg): 35-37% | metabolite from the enzymatic digestion ([3]; HPLC): no metabolite | stability against the enzymatic digestion ([3]; in contrast with the Merck compound): good stability
